Assay results from US7511044B2, “Vanilloid receptor ligands and their use in treatments” (Amgen Inc., priority 2004, dated 2009).

Row | melting point [°C] | Structure (SMILES)
1 | 249 | CC(c1ccc(F)cc1)N1CCN(c2cc(Oc3cccc4c(=O)[nH]ccc34)ncn2)CC1 (stereo not shown) [Example 72, 5-(6-(4-(1-(4-Fluorophenyl)ethyl)piperazin-1-yl)pyrimidin-4-yloxy)isoquinolin-1(2H)-one]
2 | 292.2 to 293.9 | C[C@H](c1ccc(F)cc1)N1CCN(c2cc(Oc3cccc4[nH]c(=O)c(N)nc34)ncn2)CC1 [Example 26, 3-Amino-5-(6-{4-[(1R)-1-(4-fluoro-phenyl)-ethyl]-piperazin-1-yl}-pyrimidin-4-yloxy)-1H-quinoxalin-2-one]
3 | 118 | C[C@H](c1ccc(F)cc1)N1CCN(c2cc(Oc3cccc4ncc(N)nc34)ncn2)CC1 [Example 55, (R)-8-(6-(4-(1-(4-Fluorophenyl)ethyl)piperazin-1-yl)pyrimidin-4-yloxy)quinoxalin-2-amine]
4 | 247.3 | CC(=O)Nc1nc2c(Oc3cc(N4CCN(C(C)c5ccc(F)cc5)CC4)ncn3)cccc2s1 (racemic) [Example 2, N-[4-(6-{4-[(1S,1R)-1-(4-Fluoro-phenyl) -ethyl]-piperazine1-yl}-pyrimidin-4-yloxy)-benzothiazol-2-yl]-acetamide]
5 | 315 | C[C@H](c1ccc(F)cc1)N1CCN(c2cc(Oc3cc(F)cc4[nH]c(=O)c(N)nc34)ncn2)CC1 [Example 57, (R)-3-Amino-7-fluoro-5-(6-(4-(1-(4-fluorophenyl)ethyl)piperazin-1-yl)pyrimidin-4-yloxy)quinoxalin-2(1H)-one]
6 | 134 | CC(=O)Nc1ccc2cccc(Oc3cc(N4CCN([C@H](C)c5ccc(F)cc5)CC4)ncn3)c2n1 [Example 69, (R)-N-(8-(6-(4-(1-(4-Fluorophenyl)ethyl)piperazin-1-yl)pyrimidin-4-yloxy)quinolin-2-yl)acetamide]
7 | 199.8 | CC(=O)Nc1nc2c(Oc3cc(N4CCN(C(C)c5ccc(F)cc5)CC4)ncn3)cccc2o1 (stereo not shown) [Example 66, N-(4-(6-(4-(1-(4-Fluorophenyl)ethyl)piperazin-1-yl)pyrimidin-4-yloxy)benzo[d]oxazol-2-yl)acetamide]
8 | 114 | C[C@@H](c1ccc(F)cc1)N1CCN(c2cc(Oc3cccc4ncc(N)nc34)ncn2)CC1 [Example 54, (S)-8-(6-(4-(1-(4-Fluorophenyl)ethyl)piperazin-1-yl)pyrimidin-4-yloxy)quinoxalin-2-amine]
9 | 294.5 to 295.3 | C[C@@H](c1ccc(F)cc1)N1CCN(c2cc(Oc3cccc4[nH]c(=O)c(N)nc34)ncn2)CC1 [Example 27, 3-Amino-5-(6-{4-[(1S)-1-(4-fluoro-phenyl)-ethyl]-piperazin-1-yl}-pyrimidin-4-yloxy)-1H-quinoxalin-2-one]
10 | 221 | CC(c1ccc(F)cc1)N1CCN(c2cc(Oc3cccc4c3NCC(=O)N4)ncn2)CC1 (stereo not shown) [Example 71, 5-(6-(4-(1-(4-Fluorophenyl)ethyl)piperazin-1-yl)pyrimidin-4-yloxy)-3,4-dihydroquinoxalin-2-(1H)-one]
11 | 242.2 | CC(c1ccc(F)cc1)N1CCN(c2cc(Oc3cccc4[nH]c(=O)ccc34)ncn2)CC1 (stereo not shown) [Example 61, 5-(6-(4-(1-(4-Fluorophenyl)ethyl)piperazin-1-yl)pyrimidin-4-yloxy)quinoline-2(1H)-one]
12 | 222 | CC(c1ccc(F)cc1)N1CCN(c2cc(Oc3cccc4sc(N)nc34)ncn2)CC1 (stereo not shown) [Example 52, 4-(6-(4-(1-(4-Fluorophenyl)ethyl)piperazin-1-yl)pyrimidin-4-yloxy)benzo[d]thiazol-2-amine]
13 | 243.6 to 245.7 | CC(=O)Nc1nc2c(Oc3cc(N4CCN([C@@H](C)c5ccc(F)cc5)CC4)ncn3)cccc2s1 [Example 21, N-[4-(6-{4-[(1S)-1-(4-Fluoro-phenyl)-ethyl]-piperazine 1-yl}-pyrimidin-4-yloxy)-benzothiazol-2-yl]-acetamide]
14 | 256 | C[C@H](c1ccc(F)cc1)N1CCN(c2cc(Oc3cccc4c3nc(N)c(=O)n4C)ncn2)CC1 [Example 59, (R)-3-Amino-5-(6-(4-(1-(4-fluorophenyl)ethyl)piperazin-1-yl)pyrimidin-4-yloxy)-1-methylquinoxalin-2(1H)-one]
15 | 288 | C[C@@H](c1ccc(F)cc1)N1CCN(c2cc(Oc3cc(F)cc4[nH]c(=O)c(N)nc34)ncn2)CC1 [Example 58, (S)-3-Amino-7-fluoro-5-(6-(4-(1-(4-fluorophenyl)ethyl)piperazin-1-yl)pyrimidin-4-yloxy)quinoxalin-2(1H)-one]
16 | 167 | C[C@@H](c1ccc(F)cc1)N1CCN(c2cc(Oc3cccc4ccc(N)nc34)ncn2)CC1 [Example 24, 8-(6-{4-[(1S)-(4-Fluoro-phenyl)-ethyl]-piperazine-1-yl}-pyrimidin-4-yloxy)-quinolin-2-ylamine]
17 | 114 | CC(c1ccc(F)cc1)N1CCN(c2cc(Oc3cccc4ccncc34)ncn2)CC1 (stereo not shown) [Example 70, 8-(6-(4-(1-(4-Fluorophenyl)ethyl)piperazin-1-yl)pyrimidin-4-yloxy)isoquinoline]
18 | 243.8 to 245.9 | CC(=O)Nc1nc2c(Oc3cc(N4CCN([C@H](C)c5ccc(F)cc5)CC4)ncn3)cccc2s1 [Example 22, N-[4-(6-{4-[(1R)-1-(4-Fluoro-phenyl)-ethyl]-piperazine1-yl}-pyrimidin-4-yloxy)-benzothiazol-2-yl]-acetamide]
19 | 202.6 to 204.3 | CC(=O)Nc1nc2c(Oc3cc(N4CCN(C(C)c5ccccc5F)CC4)ncn3)cccc2s1 (racemic) [Example 1, N-[4-(6-{4-[(1S,1R)-1-(2-Fluoro-phenyl)-ethyl]-piperazin-1-yl}-pyrimidin-4-yloxy)-benzothiazol-2-yl]-acetamide]
